{"source": "paper PMC5654082", "about": "(Malaria Journal, 2017)", "molecules": {"B1": {"name": "human OCT2 (Homo sapiens) (protein)", "chain": "MPTTVDDVLEHGGEFHFFQKQMFFLLALLSATFAPIYVGIVFLGFTPDHRCRSPGVAELSLRCGWSPAEELNYTVPGPGPAGEASPRQCRRYEVDWNQSTFDCVDPLASLDTNRSRLPLGPCRDGWVYETPGSSIVTEFNLVCANSWMLDLFQSSVNVGFFIGSMSIGYIADRFGRKLCLLTTVLINAAAGVLMAISPTYTWMLIFRLIQGLVSKAGWLIGYILITEFVGRRYRRTVGIFYQVAYTVGLLVLAGVAYALPHWRWLQFTVSLPNFFFLLYYWCIPESPRWLISQNKNAEAMRIIKHIAKKNGKSLPASLQRLRLEEETGKKLNPSFLDLVRTPQIRKHTMILMYNWFTSSVLYQGLIMHMGLAGDNIYLDFFYSALVEFPAAFMIILTIDRIGRRYPWAASNMVAGAACLASVFIPGDLQWLKIIISCLGRMGITMAYEIVCLVNAELYPTFIRNLGVHICSSMCDIGGIITPFLVYRLTNIWLELPLMVFGVLGLVAGGLVLLLPETKGKALPETIEEAENMQRPRKNKEKMIYLQVQKLDIPLN", "notes": "host or cells: HEK293, baculovirus transduction (CMV promoter), transient"}}, "key": {"OCT1": {"tested_on": "OCT1", "design": "method as in PMID 25914645", "conditions": "read-out: Absolute IC50 for OCT1; cited from earlier work"}, "[1]": {"conditions": "cited from earlier work"}, "[2]": {"conditions": "cited from earlier work", "remark": "listed apart in the source"}, "human OCT1": {"target": "T1, human OCT1 (Homo sapiens, UniProt O15245)", "T1 construct": "host or cells: HEK293, baculovirus transduction (CMV promoter), transient", "T1 sequence (O15245 1-554)": "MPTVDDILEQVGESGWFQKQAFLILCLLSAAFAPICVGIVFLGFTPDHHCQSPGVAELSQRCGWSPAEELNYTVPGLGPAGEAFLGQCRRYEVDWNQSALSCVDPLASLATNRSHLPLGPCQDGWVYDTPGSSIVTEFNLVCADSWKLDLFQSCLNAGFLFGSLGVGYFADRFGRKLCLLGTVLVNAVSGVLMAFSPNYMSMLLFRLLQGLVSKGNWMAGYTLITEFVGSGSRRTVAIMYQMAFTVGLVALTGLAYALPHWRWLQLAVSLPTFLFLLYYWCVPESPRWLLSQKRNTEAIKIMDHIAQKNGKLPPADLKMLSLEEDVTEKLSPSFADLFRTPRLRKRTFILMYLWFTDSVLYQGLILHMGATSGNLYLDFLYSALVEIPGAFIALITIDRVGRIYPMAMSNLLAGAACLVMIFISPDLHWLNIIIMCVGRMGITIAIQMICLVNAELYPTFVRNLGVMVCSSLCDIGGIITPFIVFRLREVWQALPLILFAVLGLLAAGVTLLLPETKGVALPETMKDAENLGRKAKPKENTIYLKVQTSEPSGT", "experiment": "Inhibition of OCT1-mediated ASP uptake in transduced HEK293 cells", "assay_type": "cell-based", "conditions": "50 µM anti-malarial, 10 µM ASP, 10 min, 37 °C; relative to solvent control fixed at 100%", "method": "(§1) HEK293 cells were modified to transiently express (a combination of) human OCT1, OCT2, MATE1, MATE2-K, or eYFP. Briefly, cDNA of the respective genes was cloned downstream of a CMV promoter into a baculovirus, of which passage three was used to transduce HEK293 cells. These cells were seeded in poly-D-lysine coated 24- or 96-wells plates and grown in a 37 °C incubator at 5% CO2. Growth was initiated at ~ 25% confluency using 375 or 125 μL cell and complete medium (DMEM + GlutaMAX™-I supplemented with 10% fetal bovine serum) suspension per well, respectively. After 24 h, cells were transduced with 30 µL virus (10 µL virus + 20 µL complete medium in case of 96-wells plates) or 2 × 15 µL virus for cells that required simultaneous expression of two transporters. Finally, 195 µL sodium butyrate (45 µL for 96-wells plates) was added to a final concentration of 2 mM to enhance protein expression.\nAMO (10 mM), ASP (1 mM), CQ (10 mM), PQ (10 mM) and PG (10 mM) were dissolved in MilliQ water. ART (10 mM), ATO (10 mM), DHA (10 mM), LUM (10 mM), MQ (10 mM), NMQ (20 mM), PYR (10 mM), QN (10 mM) were dissolved in DMSO. All compound stocks were stored at − 20 °C. Inhibition of OCT1- or OCT2-mediated ASP uptake by anti-malarials was performed in poly-D-lysine coated 96-wells plates 2 or 3 days following HEK293 cell transduction. In short, cells were washed with 125 µL 37 °C HBSS containing 10 mM HEPES, pH 7.4. Then, a 50 µL mixture of ASP (10 µM) and anti-malarial compound (25, 50 or 100 µM) in HBSS buffer (pH 7.4) was added to each well and incubated for 10 min at 37 °C. ASP transport was stopped by washing with 125 µL ice-cold HBSS-HEPES buffer supplemented with 0.5% BSA. Following a second wash with 125 µL ice-cold HBSS-HEPES buffer, cells were lysed with 125 µL 1 M NaOH and ASP was excited at a wavelength of 485 nm and fluorescence was detected at an emission wavelength of 535 nm using the Victor X3 multimode plate reader.\n(§2) For each compound, a range of seven concentrations was used to determine the concentration at which ASP uptake was inhibited half maximally (IC50). At least three independent experiments (4 for QN) were performed for each drug in triplicate as described above. Inhibition curves were plotted by nonlinear regression analyses of the data using GraphPad Prism version 5.03. […] To generate the final dose–response inhibition curve per anti-malarial, percentage of uptake was averaged for each drug concentration per experiment and the resulting mean ± SEM corresponding to three or four independent experiments were plotted."}, "human OCT2 [3]": {"target": "T2, human OCT2 (Homo sapiens, UniProt O15244)", "T2 construct": "host or cells: HEK293, baculovirus transduction (CMV promoter), transient", "T2 sequence (O15244 1-555)": "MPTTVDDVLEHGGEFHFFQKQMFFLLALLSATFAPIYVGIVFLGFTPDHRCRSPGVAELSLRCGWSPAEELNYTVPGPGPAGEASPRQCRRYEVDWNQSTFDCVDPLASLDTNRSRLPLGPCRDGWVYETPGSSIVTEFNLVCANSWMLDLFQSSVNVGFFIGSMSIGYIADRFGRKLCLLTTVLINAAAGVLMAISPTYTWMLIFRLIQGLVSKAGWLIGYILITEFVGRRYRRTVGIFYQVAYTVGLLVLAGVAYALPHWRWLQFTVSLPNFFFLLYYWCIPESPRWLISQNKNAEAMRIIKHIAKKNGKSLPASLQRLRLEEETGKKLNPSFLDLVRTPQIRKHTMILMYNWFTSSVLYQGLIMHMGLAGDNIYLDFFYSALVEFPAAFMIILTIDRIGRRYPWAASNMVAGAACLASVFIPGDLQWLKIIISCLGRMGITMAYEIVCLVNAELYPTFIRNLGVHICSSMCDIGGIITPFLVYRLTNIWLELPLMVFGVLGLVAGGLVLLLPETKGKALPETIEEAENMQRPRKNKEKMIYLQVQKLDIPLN", "design": "method as in PMID 21544077", "conditions": "HEK293 cells stably expressing human OCT2; read-out: Ki for OCT2-mediated MET uptake; cited from earlier work"}, "human OCT2 [4]": {"target": "T2, human OCT2", "experiment": "Inhibition of OCT2-mediated ASP uptake in transduced HEK293 cells", "assay_type": "cell-based", "conditions": "10 µM ASP, 10 min, 37 °C", "method": "as §1, with “Growth was initiated at ~ 25% confluency using 375 or 125 μL cell and complete medium (DMEM + GlutaMAX™-I supplemented with 10% fetal bovine serum) suspension per well, respectively.” left out\nAMO (10 mM), ASP (1 mM), CQ (10 mM), PQ (10 mM) and PG (10 mM) were dissolved in MilliQ water. ART (10 mM), ATO (10 mM), DHA (10 mM), LUM (10 mM), MQ (10 mM), NMQ (20 mM), PYR (10 mM), QN (10 mM) were dissolved in DMSO. All compound stocks were stored at − 20 °C. Inhibition of OCT1- or OCT2-mediated ASP uptake by anti-malarials was performed in poly-D-lysine coated 96-wells plates 2 or 3 days following HEK293 cell transduction. In short, cells were washed with 125 µL 37 °C HBSS containing 10 mM HEPES, pH 7.4. […] ASP transport was stopped by washing with 125 µL ice-cold HBSS-HEPES buffer supplemented with 0.5% BSA.\nas §2, with “above.” for “above. Inhibition curves were plotted by nonlinear regression analyses of the data using GraphPad Prism version 5.03.”"}, "OCT2": {"tested_on": "OCT2", "design": "method as in PMID 20053795", "conditions": "50 µM; HeLa cells, metformin as substrate; cited from earlier work"}, "[5]": {"experiment": "Maximum plasma concentration from in vivo pharmacokinetic studies after therapeutic dosing", "conditions": "human, the literature Cmax (ng/mL) of Table 2 expressed in µM", "from_the_text": "As Cmax the (geometric) mean or median maximum plasma concentrations obtained from previous in vivo pharmacokinetic studies after therapeutic dosing was used."}, "[6]": {"substrate": "[H]/N=C(\\N/C(=N/[H])Nc1ccc(Cl)cc1)NC(C)C", "experiment": "OCT2-mediated cellular import in transduced HEK293 cells (LC-MS/MS)", "assay_type": "cell-based, human", "conditions": "other: 1 min incubation, 37 °C, 2.0–16 µM, pH 7.4", "method": "HEK293 cells were modified to transiently express (a combination of) human OCT1, OCT2, MATE1, MATE2-K, or eYFP. Briefly, cDNA of the respective genes was cloned downstream of a CMV promoter into a baculovirus, of which passage three was used to transduce HEK293 cells. These cells were seeded in poly-D-lysine coated 24- or 96-wells plates and grown in a 37 °C incubator at 5% CO2. Growth was initiated at ~ 25% confluency using 375 or 125 μL cell and complete medium (DMEM + GlutaMAX™-I supplemented with 10% fetal bovine serum) suspension per well, respectively. […]\nHEK293 cells were seeded in 24-wells poly-D-lysine coated plates and transduced the subsequent day with OCT1 or OCT2 as described above. […] Following a second wash with 400 µL ice-cold HBSS-HEPES buffer, cells were lysed with 200 µL 50% (v/v) MeOH and 0.1% (v/v) formic acid (HCOOH) in water and samples were sent for quantification by mass spectrometry analysis (see “LC–MS/MS quantification of anti-malarials” section). […]\nThe affinity (KM) and maximum transport rate (Vmax) for OCT1 and OCT2 of PG were determined by analysing concentration-dependent uptake data from three independent experiments.\nImport and export of PG and cycloguanil (CG) was assessed by single and double transduced HEK293 cells. […]"}}, "note": "Read-outs that look alike come from different tables or passages of the source. Marks after values point to notes of the source that are not given here."}
{"molecule": "O=C1Nc2ccc(Cl)cc2[C@@](C#CC2CC2)(C(F)(F)F)O1", "note": "[EFV, efavirenz]", "values": [{"measurement": "IC50", "setting": "OCT1", "value": 22, "unit": "µM"}, {"measurement": "Maximum plasma concentration", "setting": "[1]", "value": 13, "unit": "µM"}, {"measurement": "Unbound in plasma", "setting": "[2]", "value": "about 0.22%"}, {"measurement": "Unbound maximum plasma concentration", "setting": "[2]", "value": 0.03, "unit": "µM"}]}
{"molecule": "CCc1nc(N)nc(N)c1-c1ccc(Cl)cc1", "note": "[Pyrimethamine, pyrimethamine]", "values": [{"measurement": "Cmax", "setting": "[1]; patients with acute falciparum malaria, (geometric) mean or median", "value": "281^e [48] ng/mL"}, {"measurement": "Relative ASP uptake (OCT1-mediated)", "setting": "human OCT1", "value": "59 ± 6", "unit": "%"}, {"measurement": "Ki", "setting": "human OCT2 [3]", "value": 10, "unit": "µM"}, {"measurement": "Unbound fraction", "setting": "[2]", "value": "0.06 [49]"}, {"measurement": "IC50", "setting": "human OCT2 [4]; seven concentrations", "value": 1.6, "unit": "µM"}, {"measurement": "Relative ASP uptake (OCT2-mediated)", "setting": "human OCT2 [4]; 50 µM anti-malarial, relative to solvent control fixed at 100%", "value": "6 ± 2", "unit": "%"}, {"measurement": "Reduction of OCT2 activity", "setting": "OCT2", "value": 60, "unit": "%"}, {"measurement": "Cmax", "setting": "[5]", "value": 1.1, "unit": "µM"}]}
{"molecule": "B1", "values": [{"measurement": "Km", "setting": "[6]", "value": 9.0, "unit": "µM"}]}
